Test results as given in patent US8163793B2, “Proline derivatives” (Hoffman-La Roche Inc., priority 2009, dated 2012).

How the values were obtained:
[1] = target: Cathepsin S (UniProt P25774); assay: Cathepsin enzyme inhibition assay (fluorogenic peptide substrate Z-Val-Val-Arg-AMC), Cathepsin S; assay type: biochemical, human and mouse; details: enzyme 1 nM, substrate 20 μM, pH 6.5; read-out: CatS IC50
Summary of the method: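 Compounds were combined with 1 nM human or mouse enzyme, and substrate then started the reaction. The buffer was potassium phosphate (100 mM, pH 6.5) containing EDTA-Na 5 mM, Triton X-100 0.001% and […] 5 mM.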

[2] = target: Cat L (UniProt P07711); assay: Cathepsin enzyme inhibition assay (fluorogenic peptide substrate Z-Val-Val-Arg-AMC), Cathepsin L; assay type: biochemical, human and mouse; details: enzyme 1 nM, substrate 20 μM, pH 6.5; read-out: CatL IC50
Summary of the method: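 Fluorogenic cleavage of Z-Val-Val-Arg-AMC (20 μM) by 1 nM Cat L was monitored at ex 360/em 465 nm for 20 min, the linear phase. The buffer was 100 mM potassium phosphate pH 6.5 with 5 mM EDTA and DTT. IC50 values were derived by standard methods, in μM.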

Row | SMILES | IC50 [1] [nM] | IC50 [2] [nM]
1 | CN1CCN(c2ccc(S(=O)(=O)[C@@H]3C[C@@H](C(=O)NC4(C#N)CC4)N(C(=O)C4(C)CC4)C3)c(C(F)(F)F)c2)CC1 [Example 272, (2S,4R)-1-(1-Methyl-cyclopropanecarbonyl)-4-[4-(4-methyl-piperazin-1-yl)-2-trifluoromethyl-benzenesulfonyl]-pyrrolidine-2-carboxylic acid (1-cyano-cyclopropyl)-amide] | 0.6 | 17100
2 | N#CC1(NC(=O)[C@@H]2C[C@@H](S(=O)(=O)c3ccc(OCC(F)(F)F)cc3Cl)CN2C(=O)C2(c3ccc(Br)cc3)CC2)CC1 [Example 273, (2S,4R)-1-[1-(4-Bromo-phenyl)-cyclopropanecarbonyl]-4-[2-chloro-4-(2,2,2-trifluoro-ethoxy)-benzenesulfonyl]-pyrrolidine-2-carboxylic acid (1-cyano-cyclopropyl)-amide] | 0.29 | 8.06
3 | CC(=O)N[C@H]1CC[C@H](CC(=O)N2C[C@H](S(=O)(=O)c3ccc(OCC(F)(F)F)cc3Cl)C[C@H]2C(=O)NC2(C#N)CC2)CC1 [Example 274, (2S,4R)-1-[2-(4-Acetylamino-cyclohexyl)-acetyl]-4-[2-chloro-4-(2,2,2-trifluoro-ethoxy)-benzenesulfonyl]-pyrrolidine-2-carboxylic acid (1-cyano-cyclopropyl)-amide] | 0.935 | 9130
4 | N#CC1(NC(=O)[C@@H]2C[C@@H](S(=O)(=O)c3ccc(OCC(F)(F)F)cc3Cl)CN2C(=O)C(c2ccc(Cl)cc2)c2ccc(Cl)cc2)CC1 [Example 275, (2S,4R)-1-[2,2-Bis-(4-chloro-phenyl)-acetyl]-4-[2-chloro-4-(2,2,2-trifluoro-ethoxy)-benzenesulfonyl]-pyrrolidine-2-carboxylic acid (1-cyano-cyclopropyl)-amide] | 0.38 | 2680
5 | Cc1cccc(-n2nc(C)cc2N2C[C@H](S(=O)(=O)c3ccccc3C(F)(F)F)C[C@H]2C(=O)NC2(C#N)CC2)c1 [Example 276, (2S,4R)-1-(5-Methyl-2-m-tolyl-2H-pyrazol-3-yl)-4-(2-trifluoromethyl-benzenesulfonyl)-pyrrolidine-2-carboxylic acid (1-cyano-cyclopropyl)-amide] | 0.392 | 9430
6 | N#CC1(NC(=O)[C@@H]2C[C@@H](S(=O)(=O)c3ccc(OCC(F)(F)F)cc3Cl)CN2C(=O)C2(c3ccc(C(N)=O)cc3)CC2)CC1 [Example 277, (2S,4R)-1-[1-(4-Carbamoyl-phenyl)-cyclopropanecarbonyl]-4-[2-chloro-4-(2,2,2-trifluoro-ethoxy)-benzenesulfonyl]-pyrrolidine-2-carboxylic acid (1-cyano-cyclopropyl)-amide] | 0.14 | 445
7 | N#CC1(NC(=O)[C@@H]2C[C@@H](S(=O)(=O)c3ccc(OCC(F)(F)F)cc3Cl)CN2C(=O)C2(c3ccc(Cl)cc3)CCC2)CC1 [Example 278, (2S,4R)-1-[1-(4-Chloro-phenyl)-cyclobutanecarbonyl]-4-[2-chloro-4-(2,2,2-trifluoro-ethoxy)-benzenesulfonyl]-pyrrolidine-2-carboxylic acid (1-cyano-cyclopropyl)-amide] | 0.003 | 2750
8 | CC(C)(C(=O)N1C[C@H](S(=O)(=O)c2ccc(OCC(F)(F)F)cc2Cl)C[C@H]1C(=O)NC1(C#N)CC1)c1ccc(Cl)cc1 [Example 279, (2S,4R)-1-[2-(4-Chloro-phenyl)-2-methyl-propionyl]-4-[2-chloro-4-(2,2,2-trifluoro-ethoxy)-benzenesulfonyl]-pyrrolidine-2-carboxylic acid (1-cyano-cyclopropyl)-amide] | 0.02 | 1310
9 | N#CC1(NC(=O)[C@H]2C[C@H](S(=O)(=O)c3ccc(OCC(F)(F)F)cc3Cl)CN2C(=O)C2(C(F)(F)F)CC2)CC1 [Example 280, (2R,4S)-4-[2-Chloro-4-(2,2,2-trifluoro-ethoxy)-benzenesulfonyl]-1-(1-trifluoromethyl-cyclopropanecarbonyl)-pyrrolidine-2-carboxylic acid (1-cyano-cyclopropyl)-amide] | 24.5 | 46500
